Results reported in PMC10291553, “Exploring Structure–Activity Relationships in Photodynamic Therapy Anticancer Agents Based on Ir(III)-COUPY Conjugates” (Journal of Medicinal Chemistry, 2023).
Read-outs that look alike come from different tables or passages of the source.

Legend:
SK-MEL-28 = test: Photo- and cytotoxic activity determination (MTT), SK-MEL-28 cells; assay type: cell-based, human; settings: normoxia; for SK-MEL-28 PI (phototherapeutic index), IC50 dark/IC50 irradiated: dark tested up to 100 μM
Excerpt: (§1) Having shown that the Ir(III)-COUPY conjugates can sensitize both type I and II ROS through spectroscopic techniques and readily internalize into living cells, their photocytotoxicity was screened in various cancer cell lines. This screening included two representative melanoma cell lines (human A375 and […] human SK-MEL-28) and cancer cells with resistance to the clinical drug cisplatin. For the latter, both sensitive and cisplatin-resistant ovarian cancer cells (A2780 and A2780cis) as well as HeLa cells, which also show a degree of chemoresistance to the platinum anticancer drug in vitro,[54] were used. For the determination of dark and light cytotoxicity, dose–response curves were assayed from both conditions to provide the correspondent IC50 values, which correspond to the concentration needed for inhibition of cell growth by 50%. Phototherapeutic index (PI) was calculated as the ratio of dark to light IC50 value for each compound.
A375, HeLa, and SK-MEL-28 cells were cultured in Dulbecco’s modified Eagle medium (DMEM) supplemented with 10% FBS, L-glutamine, and 1% penicillin–streptomycin. A2780 and A2780cis cells were grown in RPMI-1640 cell medium supplemented with 10% fetal bovine serum (FBS) and 2 mM L-glutamine. Acquired resistance to cisplatin in the A2780cis cell line was maintained by adding cisplatin 1 μM to culture medium every second passage. Cells were cultured in a humidified incubator at 310 K with 5% CO2 atmosphere and subcultured two or three times a week with appropriate densities and were confirmed to be mycoplasma-free using a standard Hoechst DNA staining method.
(§2) A2780, A2780cis, HeLa, A375, and SK-MEL-28 cells were maintained at logarithmic growth-phase and cultured in 96-well plates at a density of 5000 cells/well in complete medium for 24 h at 310 K, 5% CO2 in a humidified incubator. For hypoxia experiments, a hypoxia condition was set up by Tissue Culture Service at University of Murcia using nitrogen (N2) to displace O2 down to a minimum of 2% in a Forma Steri-Cycle i160 incubator (Thermo Fisher Scientific). Serial dilutions of the compounds were added at the final concentrations in the range of 0–100 μM in a final volume of 100 μL per well. A light-based treatment schedule was performed as follows: 1 h incubation with the compounds in the dark, followed by 1 h incubation under irradiation conditions by placing the Photoreactor EXPO-LED from Luzchem (Canada) fitted with green lamps (final light intensity applied of 1.5 mW/cm^2 at λmax = 520 nm) inside the CO2 incubator. All the cell culture plates subjected to light irradiation included untreated controls to verify that cell viability was not affected by light. Then, treatment-containing media was removed, and fresh media was added for a 48 h cell recovery period; the temperature throughout the experiment remained at 310 K. Dark control samples were placed in the same dark conditions and then kept incubated for 1 h in the dark in the humidified CO2 incubator. Medium was then aspirated by suction, cells were loaded with 50 μL of MTT solution (1 mg/mL) for additional 4 h and then removed, and 50 μL of DMSO was added to solubilize the purple formazan crystals formed in active cells. The absorbance was measured at 570 nm using a microplate reader (FLUOstar Omega), and the IC50 values were calculated based on the inhibitory rate curves using the following equation [drawing 4] 4 where I represents the percentage inhibition of viability observed, Imax is the maximal inhibitory effect, IC50 is the concentration that inhibits 50% of maximal growth, C is the concentration of the treatment, and n is the slope of the semi-logarithmic dose–response sigmoidal curves. The non-linear fitting was performed using SigmaPlot 14.0 software. All experiments were performed in three independent studies with n = 3 replicates per concentration level. For a detailed phototoxicity procedure, ref ([43]) includes technical explanations.

A2780cis cells = test: Cell death induction (Annexin V/PI staining, FSC/SSC flow cytometry); assay type: cell-based; settings: 10 μM; for mode of cell death (Annexin V/Propidium Iodide): 1 h + 1 h 520 nm, 24 h recovery; for secondary cell population with low FSC/SSC ratios (non-viable morphology): 1 h, 520 nm 1 h
Protocol: Cell death induction was evaluated using the Annexin V-FITC/Propidium iodide (AV/PI) dual staining method. Briefly, A2780cis cells were seeded in 12-well plates at a density of 2 × 10^5 cells/well and incubated overnight at 310 K. Tested compounds (10 μM) were added, following the described treatment schedule (1 h incubation + 1 h irradiation with 520 nm light). Irradiated, non-treated cells served as the control group. After 24 h of the drug-free recovery period, cells were harvested by trypsinization, washed with PBS and centrifuged, and the pellets were resuspended in 200 μL of a binding buffer as instructed by the manufacturer (Cayman). The resuspended cell solution was left at room temperature in the dark for 15 min before analysis by flow cytometry (FACSCalibur BecktonDickinson; 10^4 events acquired per sample). Cells were visualized using λexc = 488 channels and registered at 525 nm and 620 nm for Annexin V and propidium iodide in FL1 and FL2 channels, respectively. Cell populations were classified as follows: AV^-/PI^- (viable cells); AV^-/PI^+ (necrotic cells); AV^+/PI^- and AV^+/PI^+ (apoptotic cells). Alternatively, A2780cis cells were subjected to flow cytometry after phototreatments and morphological changes were analyzed using FSC and SSC contour plots. Data were analyzed using FlowJo software. Three independent experiments were performed.

[1] = tested on: A375, SK-MEL-28, HeLa, A2780 and A2780cis cancer cells; test: Photo- and cytotoxicity, statements across the studied cancer cell lines; assay type: cell-based
Excerpt: as §1
as §2, with “4 where I represents the percentage inhibition of viability observed, Imax is the maximal inhibitory effect, IC50 is the concentration that inhibits 50% of maximal growth, C is the concentration of the treatment, and n is the slope of the semi-logarithmic dose–response sigmoidal curves. The non-linear fitting was performed using SigmaPlot 14.0 software. All experiments were performed in three independent studies with n = 3 replicates per concentration level. For a detailed phototoxicity procedure, ref ([43]) includes technical explanations.” left out

[2] = Singlet oxygen generation, time-resolved NIR phosphorescence at 1275 nm; assay type: physicochemical; settings: for singlet oxygen quantum yield at 355 nm, ACN / singlet oxygen quantum yield at 355 nm, DCM / singlet oxygen quantum yield at 355 nm, PBS: excitation 355 nm
Excerpt: Singlet oxygen generation was studied by time-resolved near-infrared phosphorescence by means of a customized setup. Briefly, a pulsed Nd:YAG laser (FTSS355-Q, Crystal Laser, Berlin, Germany) working at a 1 or 10 kHz repetition rate at 355 nm (0.5 μJ per pulse) or 532 nm (1.2 μJ per pulse) was used to excite the sample. A 1064 nm rugate notch filter (Edmund Optics) and an uncoated SKG-5 filter (CVI Laser Corporation) were placed in the laser path to remove any NIR emission. The light emitted by the sample was filtered with a 1000 nm long-pass filter (Edmund Optics) and later by a narrow bandpass filter at 1275 nm (BK-1270-70-B, bk Interferenzoptik). A thermoelectric-cooled NIR-sensitive photomultiplier tube assembly (H9170-45, Hamamatsu Photonics, Hamamatsu, Japan) was used as a detector. […] The time dependence of the ^1O2 phosphorescence with the signal intensity S(t) is described by eq 2, in which τT and τΔ are the lifetimes of the photosensitizer triplet state and of ^1O2 respectively, and S0 is a preexponential parameter proportional to ΦΔ. [drawing 2] 2
The ΦΔ values of the different samples were obtained by comparing S0 values of optically matched samples and using an appropriate reference by means of eq 3. [drawing 3] 3

[3] = 1 h incubation + 1 h green light 520 nm, 1.5 mW cm^–2, 48 h drug-free medium, read-out: SK-MEL-28 light IC50
[4] = kept in the dark, 2 h treatment, 48 h drug-free medium, read-out: SK-MEL-28 dark IC50
[5] = Homo sapiens, SK-MEL-28, 1 h incubation + 1 h green light 520 nm, 1.5 mW cm^–2, 48 h drug-free medium, read-out: SK-MEL-28 light IC50
[6] = Homo sapiens, SK-MEL-28, kept in the dark, 2 h treatment, 48 h drug-free medium, read-out: SK-MEL-28 dark IC50
[7] = excitation 532 nm, room temperature

Compound | SK-MEL-28 PI (phototherapeutic index), IC50 dark/IC50 irradiated (SK-MEL-28; 520 nm) | IC50 (SK-MEL-28; [3]) [µM] | IC50 (SK-MEL-28; [4]) [µM] | mode of cell death (Annexin V/Propidium Iodide) (A2780cis cells) | secondary cell population with low FSC/SSC ratios (non-viable morphology) (A2780cis cells) | IC50 (SK-MEL-28; [5]) [µM] | IC50 (SK-MEL-28; [6]) [µM] | other results
CCCCn1c2[n+](c3cc(C(=O)NC[C@H]4CC[C@H](C(=O)NCCCNC(=O)C[n+]5ccc(/C(C#N)=C6/C=C(C)c7ccc(N(CC)CC)cc7O6)cc5)CC4)ccc31)[Ir-3]13([c]4ccccc4-c4[nH]c5ccccc5[n+]41)([c]1ccccc1-c1[nH]c4ccccc4[n+]13)[n+]1c-2ccc2ccccc21 [3e] | > 13 | 7.6 ± 0.9 | > 100 | photoinduced necrotic cell death | vastly induced these secondary cell populations | – | – | –
CC1=C/C(=C(\C#N)c2cc[n+](C)cc2)Oc2c1cc1c3c2CCCN3CCC1 [1c] | 60 | – | – | – | – | 0.2 ± 0.01 | 12 ± 1 | IC50 ([1]; absence of light, regardless of the cell line, read-out: dark IC50 in the studied cancer cell lines): 5 to 26 µM; singlet oxygen quantum yield at 355 nm, ACN ([2]; room temperature): 0; singlet oxygen quantum yield at 532 nm, ACN [2, 7]: 0.01; singlet oxygen quantum yield at 355 nm, DCM ([2]; DCM, room temperature): 0.03; singlet oxygen quantum yield at 532 nm, DCM ([2]; DCM, excitation 532 nm, room temperature): 0.03; singlet oxygen quantum yield at 355 nm, PBS ([2]; room temperature): 0; singlet oxygen quantum yield at 532 nm, PBS [2, 7]: < 0.01
CC1=C/C(=C(\C#N)c2cc[n+](C)cc2)Oc2ccccc21 [1b] | – | – | – | – | – | > 100 | > 100 | IC50 (SK-MEL-28; Homo sapiens, SK-MEL-28, 520 nm, read-out: SK-MEL-28 Light 520 nm IC50 (microM) Normoxia): > 100 µM; IC50 (SK-MEL-28; Homo sapiens, SK-MEL-28, dark, read-out: SK-MEL-28 Dark IC50 (microM) Normoxia): > 100 µM; antiproliferative activity after light irradiation ([1]; 520 nm, investigated cancer cells): did not display antiproliferative activity after light irradiation; singlet oxygen quantum yield at 355 nm, ACN ([2]; room temperature): 0.01; singlet oxygen quantum yield at 532 nm, ACN [2, 7]: < 0.01; singlet oxygen quantum yield at 355 nm, DCM ([2]; DCM, room temperature): 0.01; singlet oxygen quantum yield at 355 nm, PBS ([2]; room temperature): 0; singlet oxygen quantum yield at 532 nm, PBS [2, 7]: < 0.01
CCCCn1c2[n+](c3cc(C(=O)NCCCNC(=O)C[n+]4ccc(/C(C#N)=C5/C=C(C)c6ccc(N(CC)CC)cc6O5)cc4)ccc31)[Ir-3]13([c]4ccccc4-c4[nH]c5ccccc5[n+]41)([c]1ccccc1-c1[nH]c4ccccc4[n+]13)[n+]1c-2ccc2ccccc21 [3a] | > 67 | 1.5 ± 0.1 | > 100 | photoinduced necrotic cell death | vastly induced these secondary cell populations | – | – | –
CCCCn1c2[n+](c3cc(C(=O)OC)ccc31)[Ir-3]13([c]4ccccc4-c4[nH]c5ccccc5[n+]41)([c]1ccccc1-c1[nH]c4ccccc4[n+]13)[n+]1c-2ccc2ccccc21 [2a] | > 36 | 2.8 ± 0.3 | > 100 | – | – | – | – | –
CCCCn1c2[n+](c3cc(C(=O)NCCCNC(=O)C[n+]4ccc(/C(C#N)=C5/C=C(C)c6ccccc6O5)cc4)ccc31)[Ir-3]13([c]4ccccc4-c4[nH]c5ccccc5[n+]41)([c]1ccccc1-c1[nH]c4ccccc4[n+]13)[n+]1c-2ccc2ccccc21 [3b] | > 48 | 2.1 ± 0.2 | > 100 | – | did not produce such changes | – | – | singlet oxygen quantum yields in DCM ([2]; DCM, excitation at 355 and 532 nm): ca. 0.20
CCCCn1c2[n+](c3cc(C(=O)NCCCCCC(=O)NCCCNC(=O)C[n+]4ccc(/C(C#N)=C5/C=C(C)c6ccc(N(CC)CC)cc6O5)cc4)ccc31)[Ir-3]13([c]4ccccc4-c4[nH]c5ccccc5[n+]41)([c]1ccccc1-c1[nH]c4ccccc4[n+]13)[n+]1c-2ccc2ccccc21 [3d] | > 40 | 2.5 ± 0.2 | > 100 | photoinduced necrotic cell death | vastly induced these secondary cell populations | – | – | –
CCN(CC)c1ccc2c(c1)O/C(=C(/C#N)c1cc[n+](C)cc1)C=C2C [1a] | > 86 | – | – | – | – | 1.2 ± 0.1 | > 100 | fold differences in bioactivity upon irradiation ([1]; melanoma cells, 520 nm): more than 86 fold
